Test results reported in patent US4416884A, “Piperazinylbenzoheterocyclic compounds” (Otsuka Pharmaceutical Co., Ltd., priority 1978, dated 1983).
≈ marks a conversion by molar mass, not a printed value. Counter-ions that a name gives are not always drawn. Like-named read-outs stand apart in the source and are kept apart here.

Assays:
Assay in all cases: antimicrobial activity, serial dilution method on agar plate
Format in all cases: cell-based
[1] = tested on: Escherichia Coli NIHJ JC-2 (IFO 12734); conditions: Escherichia coli, read-out: Minimum Inhibitory Concentration
Description: (§1) The antimicrobial activity of the following test compounds on various test organisms listed below was determined by the serial dilution method on agar plate (Heart Infusion agar produced by Difco Co.) (see CHEMOTHERAPY 22, pp. 1126-1128 (1974)), and the minimum inhibitory concentrations (mcg/ml) obtained are shown in Table 1 below.
(§2) A sample of each test organism was prepared so that the population of the organism was 1×10^8 cells/ml (O.D. 660 mμ=0.07 to 0.16) and 1×10^6 cells/ml (which was obtained by diluting the above 1×10^8 cells/ml preparation).

Klebsiella pneumoniae = tested on: Klebsiella pneumoniae
Description: as §1, §2

Proteus rettgeri NIH 96 = conditions: Providencia rettgeri
Description: as §1, §2

[2] = tested on: Pseudomonas aeruginosa ATCC 10145
Description: as §1, §2

[3] = tested on: Pseudomonas aeruginosa E-2
Description: as §1, §2

[4] = tested on: Pseudomonas aeruginosa NCTC 10490
Description: as §1, §2

[5] = tested on: Salmonella typhi 0-901 (NCTC 8393); conditions: Salmonella enterica
Description: as §1, §2

[6] = tested on: Serattia marcescens IFO 12648
Description: as §1, §2

Shigella Sonnei EW 33 = conditions: read-out: Minimum Inhibitory Concentration
Description: as §1, §2

[7] = tested on: Staphylococcus aureus FDA 209 P
Description: as §1, §2

[8] = tested on: Streptococcus pyogenes IID S-23; conditions: read-out: Minimum Inhibitory Concentration
Description: as §1, §2

[9] = inoculum 1 × 10^6 cells/ml, read-out: Minimum Inhibitory Concentration
[10] = inoculum 1 × 10^8 cells/ml, read-out: Minimum Inhibitory Concentration
[11] = NIH96, inoculum 1 × 10^8 cells/ml, read-out: Minimum Inhibitory Concentration
[12] = ATCC10145, inoculum 1 × 10^8 cells/ml, read-out: Minimum Inhibitory Concentration
[13] = E2, inoculum 1 × 10^8 cells/ml, read-out: Minimum Inhibitory Concentration
[14] = NCTC10490, inoculum 1 × 10^8 cells/ml, read-out: Minimum Inhibitory Concentration
[15] = read-out: Minimum Inhibitory Concentration, inoculum 1 × 10^8 cells/ml
[16] = FDA209, inoculum 1 × 10^8 cells/ml, read-out: Minimum Inhibitory Concentration

| SMILES | MIC ([1]; inoculum 1 × 10^8 cells/ml) [µg/mL] | MIC (Klebsiella pneumoniae; [10]) [µg/mL] | MIC (Proteus rettgeri NIH 96; [11]) [µg/mL] | MIC [2, 12] [µg/mL] | MIC [3, 13] [µg/mL] | MIC [4, 14] [µg/mL] | MIC [5, 15] [µg/mL] | MIC [6, 10] [µg/mL] | MIC (Shigella Sonnei EW 33; inoculum 1 × 10^8 cells/ml) [µg/mL] | MIC [7, 16] [µg/mL] | further results |
| --- | --- | --- | --- | --- | --- | --- | --- | --- | --- | --- | --- |
| CC1CCc2c(N3CCN(C)CC3)c(F)cc3c(=O)c(C(=O)O)cn1c23 (stereo not shown) [Compound W, 8-(4-Methyl-1-piperazinyl)-9-fluoro-5-methyl-6,7-dihydro-1-oxo-1H,5H--benzo[ij]-quinolizine-2-carboxylic acid] | 0.4 (≈ 1.11 µM) | 0.4 (≈ 1.11 µM) | 0.4 (≈ 1.11 µM) | 3.1 (≈ 8.63 µM) | 6.3 (≈ 17.5 µM) | 1.6 (≈ 4.45 µM) | 0.1 (≈ 0.278 µM) | 0.4 (≈ 1.11 µM) | 0.2 (≈ 0.556 µM) | 0.4 (≈ 1.11 µM) | MIC ([1]; inoculum 1 × 10^6 cells/ml): 0.4 µg/mL (≈ 1.11 µM); MIC (Klebsiella pneumoniae; [9]): 0.2 µg/mL (≈ 0.556 µM); MIC (Proteus rettgeri NIH 96; NIH96, inoculum 1 × 10^6 cells/ml, read-out: Minimum Inhibitory Concentration): 0.4 µg/mL (≈ 1.11 µM); MIC ([2]; ATCC10145, inoculum 1 × 10^6 cells/ml, read-out: Minimum Inhibitory Concentration): 1.6 µg/mL (≈ 4.45 µM); MIC ([3]; E2, inoculum 1 × 10^6 cells/ml, read-out: Minimum Inhibitory Concentration): 3.1 µg/mL (≈ 8.63 µM); MIC ([4]; NCTC10490, inoculum 1 × 10^6 cells/ml, read-out: Minimum Inhibitory Concentration): 1.6 µg/mL (≈ 4.45 µM); MIC ([5]; read-out: Minimum Inhibitory Concentration, inoculum 1 × 10^6 cells/ml): ≤ 0.05 µg/mL; MIC [6, 9]: 0.4 µg/mL (≈ 1.11 µM); MIC (Shigella Sonnei EW 33; inoculum 1 × 10^6 cells/ml): 0.2 µg/mL (≈ 0.556 µM); MIC ([7]; FDA209, inoculum 1 × 10^6 cells/ml, read-out: Minimum Inhibitory Concentration): 0.4 µg/mL (≈ 1.11 µM); MIC ([8]; IIDS23, inoculum 1 × 10^6 cells/ml): 1.6 µg/mL (≈ 4.45 µM); MIC ([8]; IIDS23, inoculum 1 × 10^8 cells/ml): 1.6 µg/mL (≈ 4.45 µM) |
| CS(=O)(=O)N1CCN(c2ccc3c(=O)c(C(=O)O)cn4c3c2CCC4)CC1 [Compound O, 8-(4-Methanesulfonyl-1-piperazinyl)-6,7-dihydro-1-oxo-1H,5H--benzo[ij]quinolizine-2-carboxylic acid] | 6.3 (≈ 16.1 µM) | 6.3 (≈ 16.1 µM) | 6.3 (≈ 16.1 µM) | 100 (≈ 255 µM) | 100 (≈ 255 µM) | 25 (≈ 63.9 µM) | 1.6 (≈ 4.09 µM) | 12.5 (≈ 31.9 µM) | 6.3 (≈ 16.1 µM) | 3.1 (≈ 7.92 µM) | – |
| CN1CCN(c2ccc3c(=O)c(C(=O)O)cn4c3c2CCC4)CC1 [Compound L, 8-(4-Methyl-1-piperazinyl)-6,7-dihydro-1-oxo-1H,5H--benzo[ij]quinolizine-2-carboxylic acid] | 1.6 (≈ 4.89 µM) | 6.3 (≈ 19.2 µM) | 3.1 (≈ 9.47 µM) | 50 (≈ 153 µM) | 50 (≈ 153 µM) | 50 (≈ 153 µM) | 3.1 (≈ 9.47 µM) | 6.3 (≈ 19.2 µM) | 3.1 (≈ 9.47 µM) | 6.3 (≈ 19.2 µM) | – |
| O=C(O)c1cn2c3c(c(N4CCN(Cc5ccccc5)CC4)ccc3c1=O)CCC2 [Compound R, 8-(4-Benzyl-1-piperazinyl)-6,7-dihydro-1-oxo-1H,5H--benzo[ij]quinolizine-2-carboxylic acid] | 1.6 (≈ 3.97 µM) | 3.1 (≈ 7.68 µM) | 1.6 (≈ 3.97 µM) | 25 (≈ 62 µM) | 25 (≈ 62 µM) | 12.5 (≈ 31 µM) | 1.6 (≈ 3.97 µM) | 3.1 (≈ 7.68 µM) | 1.6 (≈ 3.97 µM) | 12.5 (≈ 31 µM) | – |
| Cc1ccc(S(=O)(=O)N2CCN(c3ccc4c(=O)c(C(=O)O)cn5c4c3CCC5)CC2)cc1 [Compound S, 8-(4-p-Toluenesulfonyl-1-piperazinyl)-6,7-dihydro-1-oxo-1H,5H--benzo[ij]quinolizine-2-carboxylic acid] | 1.6 (≈ 3.42 µM) | 3.1 (≈ 6.63 µM) | 3.1 (≈ 6.63 µM) | 25 (≈ 53.5 µM) | 50 (≈ 107 µM) | 12.5 (≈ 26.7 µM) | 1.6 (≈ 3.42 µM) | 6.3 (≈ 13.5 µM) | 3.1 (≈ 6.63 µM) | 6.3 (≈ 13.5 µM) | – |
| O=C(O)c1cn2c3c(c(N4CCN(C(=O)c5ccccc5)CC4)ccc3c1=O)CCC2 [Compound N, 8-(4-Benzoyl-1-piperazinyl)-6,7-dihydro-1-oxo-1H,5H--benzo[ij]quinolizine-2-carboxylic acid] | 6.3 (≈ 15.1 µM) | 6.3 (≈ 15.1 µM) | 6.3 (≈ 15.1 µM) | 50 (≈ 120 µM) | 100 (≈ 240 µM) | 25 (≈ 59.9 µM) | 1.6 (≈ 3.83 µM) | 12.5 (≈ 29.9 µM) | 3.1 (≈ 7.43 µM) | 3.1 (≈ 7.43 µM) | – |
| O=C(O)c1cn2c3c(c(N4CCNCC4)c(Cl)cc3c1=O)CCC2 [Compound P, 9-Chloro-8-(1-piperazinyl)-6,7-dihydro-1-oxo-1H,5H--benzo[ij]quinolizine-2-carboxylic acid hydrochloride] | – | – | – | – | – | – | – | – | 1.6 | – | MIC [1]: 1.6 µg/mL; MIC (Klebsiella pneumoniae; [15]): 0.8 µg/mL; MIC (Proteus rettgeri NIH 96; NIH96, read-out: Minimum Inhibitory Concentration, inoculum 1 × 10^8 cells/ml): 0.4 µg/mL; MIC ([2]; ATCC10145, read-out: Minimum Inhibitory Concentration, inoculum 1 × 10^8 cells/ml): 6.3 µg/mL; MIC ([3]; E2, read-out: Minimum Inhibitory Concentration, inoculum 1 × 10^8 cells/ml): 6.3 µg/mL; MIC ([4]; NCTC10490, read-out: Minimum Inhibitory Concentration, inoculum 1 × 10^8 cells/ml): 6.3 µg/mL; MIC [5, 10]: 0.8 µg/mL; MIC [6, 15]: 1.6 µg/mL; MIC ([7]; FDA209, read-out: Minimum Inhibitory Concentration, inoculum 1 × 10^8 cells/ml): 6.3 µg/mL |
